Active and inactive are the calls of the source.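 Rule for the calls: active = GFP ratio to DMSO above 1.5 or below 0.66; inactive = the rest.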
Columns and labels:
Test in all cases: TOR pathway GFP reporter clone modulation in yeast – S. cerevisiae, GFP-tagged clone panel, flow cytometry (AID 504473);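 note: median GFP fluorescence of the cells measured by high-throughput flow cytometry; test concentration not given here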
YMR105C = settings: S. cerevisiae GFP-tagged strains, 3 h
YBR248C = settings: S. cerevisiae GFP-tagged strains, 3 h
YHR087W = settings: S. cerevisiae GFP-tagged strains, 3 h
YHL021C = settings: S. cerevisiae GFP-tagged strains, 3 h
YLR367W = settings: S. cerevisiae GFP-tagged strains, 3 h
YDR382W = settings: S. cerevisiae GFP-tagged strains, 3 h
YKL103C = settings: S. cerevisiae GFP-tagged strains, 3 h
YBL087C = settings: S. cerevisiae GFP-tagged strains, 3 h
YLL026W = settings: S. cerevisiae GFP-tagged strains, 3 h
YOR173W = settings: S. cerevisiae GFP-tagged strains, 3 h
YGL062W = settings: S. cerevisiae GFP-tagged strains, 3 h
YPL265W = settings: S. cerevisiae GFP-tagged strains, 3 h
[1] = biological target: General amino acid permease AGP1 (Saccharomyces cerevisiae S288c) (UniProt P25376); settings: S. cerevisiae GFP-tagged strains, 3 h, YCL025C
Chain of General amino acid permease AGP1 (Saccharomyces cerevisiae S288c) (P25376 whole entry, looked up): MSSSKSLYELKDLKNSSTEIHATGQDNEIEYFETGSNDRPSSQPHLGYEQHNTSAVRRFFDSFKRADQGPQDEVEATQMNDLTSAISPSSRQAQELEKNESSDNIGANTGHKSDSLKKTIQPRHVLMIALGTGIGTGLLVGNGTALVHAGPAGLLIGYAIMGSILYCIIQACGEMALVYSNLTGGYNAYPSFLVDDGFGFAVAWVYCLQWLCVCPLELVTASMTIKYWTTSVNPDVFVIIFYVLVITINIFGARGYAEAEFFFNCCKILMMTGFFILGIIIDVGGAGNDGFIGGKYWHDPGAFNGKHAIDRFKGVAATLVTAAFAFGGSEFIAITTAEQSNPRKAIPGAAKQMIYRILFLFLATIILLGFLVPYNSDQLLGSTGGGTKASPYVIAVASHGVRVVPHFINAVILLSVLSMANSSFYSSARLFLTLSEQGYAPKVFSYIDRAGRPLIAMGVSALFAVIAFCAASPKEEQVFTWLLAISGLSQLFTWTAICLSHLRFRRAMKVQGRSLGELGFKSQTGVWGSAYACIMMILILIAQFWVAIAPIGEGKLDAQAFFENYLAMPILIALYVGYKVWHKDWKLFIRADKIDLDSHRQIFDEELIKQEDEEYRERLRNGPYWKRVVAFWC

YHR144C = settings: S. cerevisiae GFP-tagged strains, 3 h
YPL111W = settings: S. cerevisiae GFP-tagged strains, 3 h
YER151C = settings: S. cerevisiae GFP-tagged strains, 3 h
YHR018C = settings: S. cerevisiae GFP-tagged strains, 3 h
YIL066C = settings: S. cerevisiae GFP-tagged strains, 3 h
YEL060C = settings: S. cerevisiae GFP-tagged strains, 3 h
YCR005C = settings: S. cerevisiae GFP-tagged strains, 3 h
YBR208C = settings: S. cerevisiae GFP-tagged strains, 3 h
YJL144W = settings: S. cerevisiae GFP-tagged strains, 3 h
YOR063W = settings: S. cerevisiae GFP-tagged strains, 3 h
YDL205C = settings: S. cerevisiae GFP-tagged strains, 3 h
YPR132W = settings: S. cerevisiae GFP-tagged strains, 3 h
YPL220W = settings: S. cerevisiae GFP-tagged strains, 3 h
YDL204W = settings: S. cerevisiae GFP-tagged strains, 3 h
YPL150W = settings: S. cerevisiae GFP-tagged strains, 3 h
YMR251W-A = settings: S. cerevisiae GFP-tagged strains, 3 h
YPR184W = settings: S. cerevisiae GFP-tagged strains, 3 h
YOR371C = settings: S. cerevisiae GFP-tagged strains, 3 h
YFR031C-A = settings: S. cerevisiae GFP-tagged strains, 3 h
YHR141C = settings: S. cerevisiae GFP-tagged strains, 3 h
YIL043C = settings: S. cerevisiae GFP-tagged strains, 3 h
YGL135W = settings: S. cerevisiae GFP-tagged strains, 3 h
YJL056C = settings: S. cerevisiae GFP-tagged strains, 3 h
YCL064C = settings: S. cerevisiae GFP-tagged strains, 3 h
YDR453C = settings: S. cerevisiae GFP-tagged strains, 3 h
YGR088W = settings: S. cerevisiae GFP-tagged strains, 3 h
YMR120C = settings: S. cerevisiae GFP-tagged strains, 3 h
YEL007W = settings: S. cerevisiae GFP-tagged strains, 3 h
YOR038C = settings: S. cerevisiae GFP-tagged strains, 3 h
YPR145W = settings: S. cerevisiae GFP-tagged strains, 3 h
YKR094C = settings: S. cerevisiae GFP-tagged strains, 3 h
YLR287C-A = settings: S. cerevisiae GFP-tagged strains, 3 h
YDR399W = settings: S. cerevisiae GFP-tagged strains, 3 h
YER081W = settings: S. cerevisiae GFP-tagged strains, 3 h
YML026C = settings: S. cerevisiae GFP-tagged strains, 3 h
YNL068C = settings: S. cerevisiae GFP-tagged strains, 3 h
YML034W = settings: S. cerevisiae GFP-tagged strains, 3 h
YFR053C = settings: S. cerevisiae GFP-tagged strains, 3 h
YOR136W = settings: S. cerevisiae GFP-tagged strains, 3 h
YLR185W = settings: S. cerevisiae GFP-tagged strains, 3 h
YEL063C = settings: S. cerevisiae GFP-tagged strains, 3 h
YBR139W = settings: S. cerevisiae GFP-tagged strains, 3 h
YER156C = settings: S. cerevisiae GFP-tagged strains, 3 h
YKR039W = settings: S. cerevisiae GFP-tagged strains, 3 h
YJR148W = settings: S. cerevisiae GFP-tagged strains, 3 h
YNL015W = settings: S. cerevisiae GFP-tagged strains, 3 h
YPL131W = settings: S. cerevisiae GFP-tagged strains, 3 h
YLR058C = settings: S. cerevisiae GFP-tagged strains, 3 h
YMR307W = settings: S. cerevisiae GFP-tagged strains, 3 h
YNL142W = settings: S. cerevisiae GFP-tagged strains, 3 h
YNL112W = settings: S. cerevisiae GFP-tagged strains, 3 h
YIL051C = settings: S. cerevisiae GFP-tagged strains, 3 h
YAL060W = settings: S. cerevisiae GFP-tagged strains, 3 h
YCR002C = settings: S. cerevisiae GFP-tagged strains, 3 h
YDL130W = settings: S. cerevisiae GFP-tagged strains, 3 h
YLL039C = settings: S. cerevisiae GFP-tagged strains, 3 h
YNR001C = settings: S. cerevisiae GFP-tagged strains, 3 h
YBR072W = settings: S. cerevisiae GFP-tagged strains, 3 h
YML128C = settings: S. cerevisiae GFP-tagged strains, 3 h
YGR034W = settings: S. cerevisiae GFP-tagged strains, 3 h
YGR121C = settings: S. cerevisiae GFP-tagged strains, 3 h
YKL086W = settings: S. cerevisiae GFP-tagged strains, 3 h
YKR093W = settings: S. cerevisiae GFP-tagged strains, 3 h
YER117W = settings: S. cerevisiae GFP-tagged strains, 3 h
YHR203C = settings: S. cerevisiae GFP-tagged strains, 3 h
YLR142W = settings: S. cerevisiae GFP-tagged strains, 3 h
YOR375C = settings: S. cerevisiae GFP-tagged strains, 3 h
YOR182C = settings: S. cerevisiae GFP-tagged strains, 3 h
YML004C = settings: S. cerevisiae GFP-tagged strains, 3 h
YLR109W = settings: S. cerevisiae GFP-tagged strains, 3 h
YKL119C = settings: S. cerevisiae GFP-tagged strains, 3 h
YIL052C = settings: S. cerevisiae GFP-tagged strains, 3 h
YOL052C-A = settings: S. cerevisiae GFP-tagged strains, 3 h
YIL069C = settings: S. cerevisiae GFP-tagged strains, 3 h
YLR237W = settings: S. cerevisiae GFP-tagged strains, 3 h
YGL147C = settings: S. cerevisiae GFP-tagged strains, 3 h
YNL214W = settings: S. cerevisiae GFP-tagged strains, 3 h
YML063W = settings: S. cerevisiae GFP-tagged strains, 3 h
YGR019W = settings: S. cerevisiae GFP-tagged strains, 3 h
YGL036W = settings: S. cerevisiae GFP-tagged strains, 3 h
YEL071W = settings: S. cerevisiae GFP-tagged strains, 3 h
YDR070C = settings: S. cerevisiae GFP-tagged strains, 3 h
YAL061W = settings: S. cerevisiae GFP-tagged strains, 3 h

Question: What does the source list for `CNc1nc(N)c([N+](=O)[O-])c(Nc2ccccc2)n1`?
Answer: GFP ratio to DMSO (YMR105C): 1.02 (inactive); GFP ratio to DMSO (YBR248C): 0.927 (inactive); GFP ratio to DMSO (YHR087W): 0.827 (inactive); GFP ratio to DMSO (YHL021C): 1.07 (inactive); GFP ratio to DMSO (YLR367W): 1.06 (inactive); GFP ratio to DMSO (YDR382W): 1.14 (inactive); GFP ratio to DMSO (YKL103C): 0.988 (inactive); GFP ratio to DMSO (YBL087C): 1 (inactive); GFP ratio to DMSO (YLL026W): 1 (inactive); GFP ratio to DMSO (YOR173W): 0.941 (inactive); GFP ratio to DMSO (YGL062W): 1.34 (inactive); GFP ratio to DMSO (YPL265W): 1.38 (inactive); GFP ratio to DMSO [1]: 0.776 (inactive); GFP ratio to DMSO (YHR144C): 0.896 (inactive); GFP ratio to DMSO (YPL111W): 1.02 (inactive); GFP ratio to DMSO (YER151C): 0.943 (inactive); GFP ratio to DMSO (YHR018C): 0.874 (inactive); GFP ratio to DMSO (YIL066C): 0.844 (inactive); GFP ratio to DMSO (YEL060C): 0.694 (inactive); GFP ratio to DMSO (YCR005C): 1.37 (inactive); GFP ratio to DMSO (YBR208C): 0.853 (inactive); GFP ratio to DMSO (YJL144W): 0.911 (inactive); GFP ratio to DMSO (YOR063W): 1.07 (inactive); GFP ratio to DMSO (YDL205C): 0.983 (inactive); GFP ratio to DMSO (YPR132W): 1.18 (inactive); GFP ratio to DMSO (YPL220W): 1.01 (inactive); GFP ratio to DMSO (YDL204W): 0.948 (inactive); GFP ratio to DMSO (YPL150W): 0.843 (inactive); GFP ratio to DMSO (YMR251W-A): 0.892 (inactive); GFP ratio to DMSO (YPR184W): 0.886 (inactive); GFP ratio to DMSO (YOR371C): 0.844 (inactive); GFP ratio to DMSO (YFR031C-A): 1.06 (inactive); GFP ratio to DMSO (YHR141C): 1.04 (inactive); GFP ratio to DMSO (YIL043C): 1.02 (inactive); GFP ratio to DMSO (YGL135W): 1.08 (inactive); GFP ratio to DMSO (YJL056C): 0.808 (inactive); GFP ratio to DMSO (YCL064C): 0.878 (inactive); GFP ratio to DMSO (YDR453C): 0.899 (inactive); GFP ratio to DMSO (YGR088W): 0.924 (inactive); GFP ratio to DMSO (YMR120C): 0.519; GFP ratio to DMSO (YEL007W): 0.874 (inactive); GFP ratio to DMSO (YOR038C): 0.966 (inactive); GFP ratio to DMSO (YPR145W): 1.17 (inactive); GFP ratio to DMSO (YKR094C): 1.11 (inactive); GFP ratio to DMSO (YLR287C-A): 1.1 (inactive); GFP ratio to DMSO (YDR399W): 0.947 (inactive); GFP ratio to DMSO (YER081W): 1.14 (inactive); GFP ratio to DMSO (YML026C): 0.957 (inactive); GFP ratio to DMSO (YNL068C): 0.902 (inactive); GFP ratio to DMSO (YML034W): 0.814 (inactive); GFP ratio to DMSO (YFR053C): 0.83 (inactive); GFP ratio to DMSO (YOR136W): 1.11 (inactive); GFP ratio to DMSO (YLR185W): 1.08 (inactive); GFP ratio to DMSO (YEL063C): 1.03 (inactive); GFP ratio to DMSO (YBR139W): 0.915 (inactive); GFP ratio to DMSO (YER156C): 0.978 (inactive); GFP ratio to DMSO (YKR039W): 0.804 (inactive); GFP ratio to DMSO (YJR148W): 1.26 (inactive); GFP ratio to DMSO (YNL015W): 0.929 (inactive); GFP ratio to DMSO (YPL131W): 1.14 (inactive); GFP ratio to DMSO (YLR058C): 0.838 (inactive); GFP ratio to DMSO (YMR307W): 1.05 (inactive); GFP ratio to DMSO (YNL142W): 0.933 (inactive); GFP ratio to DMSO (YNL112W): 1.12 (inactive); GFP ratio to DMSO (YIL051C): 0.923 (inactive); GFP ratio to DMSO (YAL060W): 0.91 (inactive); GFP ratio to DMSO (YCR002C): 0.929 (inactive); GFP ratio to DMSO (YDL130W): 1.09 (inactive); GFP ratio to DMSO (YLL039C): 0.733 (inactive); GFP ratio to DMSO (YNR001C): 1.05 (inactive); GFP ratio to DMSO (YBR072W): 0.795 (inactive); GFP ratio to DMSO (YML128C): 0.827 (inactive); GFP ratio to DMSO (YGR034W): 1.07 (inactive); GFP ratio to DMSO (YGR121C): 0.942 (inactive); GFP ratio to DMSO (YKL086W): 0.881 (inactive); GFP ratio to DMSO (YKR093W): 1.17 (inactive); GFP ratio to DMSO (YER117W): 0.909 (inactive); GFP ratio to DMSO (YHR203C): 1.04 (inactive); GFP ratio to DMSO (YLR142W): 0.866 (inactive); GFP ratio to DMSO (YOR375C): 1.03 (inactive); GFP ratio to DMSO (YOR182C): 1.02 (inactive); GFP ratio to DMSO (YML004C): 0.838 (inactive); GFP ratio to DMSO (YLR109W): 1.17 (inactive); GFP ratio to DMSO (YKL119C): 0.959 (inactive); GFP ratio to DMSO (YIL052C): 0.931 (inactive); GFP ratio to DMSO (YOL052C-A): 0.961 (inactive); GFP ratio to DMSO (YIL069C): 1.11 (inactive); GFP ratio to DMSO (YLR237W): 0.848 (inactive); GFP ratio to DMSO (YGL147C): 1.05 (inactive); GFP ratio to DMSO (YNL214W): 1.01 (inactive); GFP ratio to DMSO (YML063W): 1.07 (inactive); GFP ratio to DMSO (YGR019W): 0.906 (inactive); GFP ratio to DMSO (YGL036W): 0.822 (inactive); GFP ratio to DMSO (YEL071W): 1.66; GFP ratio to DMSO (YDR070C): 0.918 (inactive); GFP ratio to DMSO (YAL061W): 0.796 (inactive)
